Data on 20 compounds can be found in US20060089378A1 (priority 2004, published 2006).

One test addresses CB1 receptor (human) (Homo sapiens, UniProt P21554). Description: cell-based. The following applies: for CB1 Receptor Functional Activity (change in functional activity, CRE β-gal): one compound concentration, β-galactosidase activity relative to vehicle treated cells.
The next test has as its target T1, Cannabinoid CB1 Receptor (Homo sapiens, UniProt P21554).
T1 construct: expressed in transfected cells
Description: Binding assay for CB1 agonists or inverse agonists (radioligand competition, membranes of transfected SK-N-MC cells). For orientation: Displacement assays read how much labelled ligand stays bound in the presence of the test substance.

The target in another test is T2, Cannabinoid CB2 Receptor (Homo sapiens, UniProt P34972).
T2 construct: expressed in transfected cells
T2 sequence (P34972 whole entry): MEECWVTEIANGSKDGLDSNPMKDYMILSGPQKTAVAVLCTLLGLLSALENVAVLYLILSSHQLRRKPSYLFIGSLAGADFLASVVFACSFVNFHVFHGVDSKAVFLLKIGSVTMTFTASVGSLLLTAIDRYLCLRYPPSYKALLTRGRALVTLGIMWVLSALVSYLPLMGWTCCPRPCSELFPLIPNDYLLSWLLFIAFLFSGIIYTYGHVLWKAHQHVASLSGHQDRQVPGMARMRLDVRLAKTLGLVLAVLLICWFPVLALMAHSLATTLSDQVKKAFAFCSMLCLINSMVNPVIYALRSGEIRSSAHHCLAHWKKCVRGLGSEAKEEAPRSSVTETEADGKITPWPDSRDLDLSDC
Description: Binding assay for CB2 agonists or inverse agonists (radioligand competition, membranes of transfected SK-N-MC cells). The following applies: for inhibition at 0.2 µM: read-out: Cannabinoid CB2 Receptor Binding percent inhibition.

Setting [1] is: human CB1, SK-N-MC cell membranes, calculated by linear regression from percent inhibition at various concentrations, read-out: Cannabinoid CB1 Receptor Binding IC50.

The structures appear in SMILES notation. Read-outs that look alike come from different tables or passages of the source.

T1 sequence (P21554 whole entry): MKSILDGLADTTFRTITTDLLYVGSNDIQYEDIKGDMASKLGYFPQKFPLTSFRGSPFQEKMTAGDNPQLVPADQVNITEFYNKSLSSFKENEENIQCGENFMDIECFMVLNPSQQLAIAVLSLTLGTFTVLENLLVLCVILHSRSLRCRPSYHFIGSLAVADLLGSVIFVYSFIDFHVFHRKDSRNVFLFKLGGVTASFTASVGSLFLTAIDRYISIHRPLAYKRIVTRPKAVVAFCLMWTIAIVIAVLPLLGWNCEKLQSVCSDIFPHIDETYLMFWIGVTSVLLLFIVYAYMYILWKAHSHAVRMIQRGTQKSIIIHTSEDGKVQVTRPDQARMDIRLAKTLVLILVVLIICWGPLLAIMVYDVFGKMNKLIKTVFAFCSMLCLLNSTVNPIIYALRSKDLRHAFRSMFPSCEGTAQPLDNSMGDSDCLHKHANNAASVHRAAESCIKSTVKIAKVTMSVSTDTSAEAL
Chain of CB1 receptor (human) (P21554 whole entry): as above

Usually EC50 stands for the concentration that produces a half-maximal response. Read a low EC50 as greater potency. A word on the IC50: it is the concentration that gives 50% inhibition. Usually inhibition stands for the drop in the measured response relative to a control, in per cent. With `CC(NC(=O)c1nn(-c2ccc(Cl)cc2)c2c1CNC/C2=C\c1ccc(F)cc1)c1ccccn1` (stereo not drawn) [Cpd 75, (7E)-1-(4-chloro-phenyl)-7-(4-fluoro-benzylidene)-4,5,6,7-tetrahydro-1H-pyrazolo[4,3-c]pyridine-3-carboxylic acid (1-pyridin-2-yl-ethyl)-amide], the EC50 on CB1 receptor (human) amounted to 40 nM. On Cannabinoid CB1 Receptor, this compound returned an IC50 of 200 nM. Also, the inhibition at 0.2 µM at Cannabinoid CB2 Receptor amounted to 0%.

Turning to `O=C(NN1CCCCC1)c1nn(-c2ccc(Cl)cc2)c2c1CNC/C2=C\c1ccc(F)cc1` [Cpd 76, (7E)-1-(4-chloro-phenyl)-7-(4-fluoro-benzylidene)-4,5,6,7-tetrahydro-1H-pyrazolo[4,3-c]pyridine-3-carboxylic acid piperidin-1-ylamide], it took 30 nM to reach a half-maximal effect at CB1 receptor (human) (EC50). Moreover, the inhibition at 0.2 µM at Cannabinoid CB1 Receptor (read-out: Cannabinoid CB1 Receptor Binding percent inhibition) was 48%; on Cannabinoid CB2 Receptor, 0%.

Consider `CCNC(=O)N1C/C(=C\c2ccc(F)cc2)c2c(c(C(=O)NC(C)c3ccccn3)nn2-c2ccc(Cl)cc2)C1` (stereo not drawn) [Cpd 77, (7E)-1-(4-chloro-phenyl)-7-(4-fluoro-benzylidene)-1,4,6,7-tetrahydro-pyrazolo[4,3-c]pyridine-3,5-dicarboxylic acid 5-ethylamide 3-[(1-pyridin-2-yl-ethyl)-amide]], for which, on CB1 receptor (human), the EC50 was 10 nM. At Cannabinoid CB1 Receptor, this compound returned an IC50 of 80 nM. Further, the inhibition at 0.2 µM at Cannabinoid CB2 Receptor stood at 0%.

At CB1 receptor (human), `COC(=O)N1C/C(=C\c2ccc(F)cc2)c2c(c(C(=O)NC(C)c3ccccn3)nn2-c2ccc(Cl)cc2)C1` (stereo not drawn) [Cpd 79, (7E)-1-(4-chloro-phenyl)-7-(4-fluoro-benzylidene)-3-(1-pyridin-2-yl-ethylcarbamoyl)-1,4,6,7-tetrahydro-pyrazolo[4,3-c]pyridine-5-carboxylic acid methyl ester] came in with an EC50 of 3 nM. In addition, the IC50 on Cannabinoid CB1 Receptor was found to be 10 nM. Further, at Cannabinoid CB2 Receptor, the inhibition at 0.2 µM came out at 13%.

As for `CC(=O)N1C/C(=C\c2ccc(F)cc2)c2c(c(C(=O)NC(C)c3ccccn3)nn2-c2ccc(Cl)cc2)C1` (stereo not drawn) [Cpd 80, (7E)-5-acetyl-1-(4-chloro-phenyl)-7-(4-fluoro-benzylidene)-4,5,6,7-tetrahydro-1H-pyrazolo[4,3-c]pyridine-3-carboxylic acid (1-pyridin-2-yl-ethyl)-amide], a half-maximal response on CB1 receptor (human) (EC50) required 9 nM. For the same compound, the IC50 at Cannabinoid CB1 Receptor amounted to 100 nM. Moreover, the inhibition at 0.2 µM at Cannabinoid CB2 Receptor was determined as 0%.

On to `COC(=O)N1C/C(=C\c2ccc(F)cc2)c2c(c(C(=O)NN3CC4CCCC4C3)nn2-c2ccc(Cl)cc2)C1` (stereo not drawn) [Cpd 87, (7E)-1-(4-chloro-phenyl)-7-(4-fluoro-benzylidene)-3-(hexahydro-cyclopenta[c]pyrrol-2-ylcarbamoyl)-1,4,6,7-tetrahydro-pyrazolo[4,3-c]pyridine-5-carboxylic acid methyl ester], for which the EC50 at CB1 receptor (human) amounted to 1 nM. On Cannabinoid CB1 Receptor, this compound displayed an IC50 of 50 nM. Also, the inhibition at 0.2 µM on Cannabinoid CB2 Receptor worked out at 16%.

Compound `COc1ccc(/C=C2\CN(C(=O)OC(C)(C)C)Cc3c(C(=O)N[C@H](C)c4ccccn4)nn(-c4ccc(Cl)cc4Cl)c32)cc1` [Cpd 89, (7E)-1-(2,4-dichloro-phenyl)-7-(4-methoxy-benzylidene)-3-[(1R)-1-pyridin-2-yl-ethylcarbamoyl]-1,4,6,7-tetrahydro-pyrazolo[4,3-c]pyridine-5-carboxylic acid tert-butyl ester] showed an EC50 on CB1 receptor (human) of 5 nM. The compound also came in with an IC50 at Cannabinoid CB1 Receptor of 20 nM. Further, at Cannabinoid CB2 Receptor, the inhibition at 0.2 µM is 27%.

Compound `O=C(NN1CC2CCCC2C1)c1nn(-c2ccc(Cl)cc2Cl)c2c1CNC/C2=C\c1ccc(F)cc1` (stereo not drawn) [Cpd 90, (7E)-1-(2,4-dichloro-phenyl)-7-(4-fluoro-benzylidene)-4,5,6,7-tetrahydro-1H-pyrazolo[4,3-c]pyridine-3-carboxylic acid (hexahydro-cyclopenta[c]pyrrol-2-yl)-amide] registered an EC50 on CB1 receptor (human) of 8 nM. Besides, the concentration for half-maximal inhibition (IC50) on Cannabinoid CB1 Receptor amounted to 30 nM. In addition, the inhibition at 0.2 µM on Cannabinoid CB2 Receptor came out at 15%.

For `CC(=O)N1C/C(=C\c2ccc(F)cc2)c2c(c(C(=O)NN3CC4CCCC4C3)nn2-c2ccc(Cl)cc2Cl)C1` (stereo not drawn) [Cpd 91, (7E)-5-acetyl-1-(2,4-dichloro-phenyl)-7-(4-fluoro-benzylidene)-4,5,6,7-tetrahydro-1H-pyrazolo[4,3-c]pyridine-3-carboxylic acid (hexahydro-cyclopenta[c]pyrrol-2-yl)-amide], a half-maximal effect on CB1 receptor (human) (EC50) was put at 3 nM. Besides, the half-inhibitory concentration (IC50) at Cannabinoid CB1 Receptor was determined as 50 nM. Further, the inhibition at 0.2 µM on Cannabinoid CB2 Receptor is 14%.

`COC(=O)N1C/C(=C\c2ccc(F)cc2)c2c(c(C(=O)NN3CC4CCCC4C3)nn2-c2ccc(Cl)cc2Cl)C1` (stereo not drawn) [Cpd 92, (7E)-1-(2,4-dichloro-phenyl)-7-(4-fluoro-benzylidene)-3-(hexahydro-cyclopenta[c]pyrrol-2-ylcarbamoyl)-1,4,6,7-tetrahydro-pyrazolo[4,3-c]pyridinc-5-carboxylic acid methyl ester] came in with an EC50 at CB1 receptor (human) of 2 nM. Besides, the IC50 on Cannabinoid CB1 Receptor was 20 nM. At Cannabinoid CB2 Receptor, the inhibition at 0.2 µM came out at 4%.

On CB1 receptor (human), `COc1ccc(/C=C2\CNCc3c(C(=O)N[C@H](C)c4ccccn4)nn(-c4ccc(Cl)cc4Cl)c32)cc1` [Cpd 93, (7E)-1-(2,4-dichloro-phenyl)-7-(4-methoxy-benzylidene)-4,5,6,7-tetrahydro-1H-pyrazolo[4,3-c]pyridine-3-carboxylic acid [(1R)-1-pyridin-2-yl-ethyl]-amide] had an EC50 of 8 nM. The compound also registered a half-inhibitory concentration (IC50) on Cannabinoid CB1 Receptor of 30 nM. In addition, on Cannabinoid CB2 Receptor, the inhibition at 0.2 µM was 7%.

Turning to `COc1ccc(/C=C2\CNCc3c(C(=O)NN4CC5CCCC5C4)nn(-c4ccc(Cl)cc4Cl)c32)cc1` (stereo not drawn) [Cpd 95, (7E)-1-(2,4-dichloro-phenyl)-7-(4-methoxy-benzylidene)-4,5,6,7-tetrahydro-1H-pyrazolo[4,3-c]pyridine-3-carboxylic acid (hexahydro-cyclopenta[c]pyrrol-2-yl)-amide], a half-maximal effect at CB1 receptor (human) (EC50) was put at 9 nM. The compound further returned an IC50 on Cannabinoid CB1 Receptor of 80 nM. The inhibition at 0.2 µM at Cannabinoid CB2 Receptor was 20%.

On CB1 receptor (human), `COC(=O)N1C/C(=C\c2ccc(OC)cc2)c2c(c(C(=O)N[C@H](C)c3ccccn3)nn2-c2ccc(Cl)cc2Cl)C1` [Cpd 96, (7E)-1-(2,4-dichloro-phenyl)-7-(4-methoxy-benzylidene)-3-[(1R)-1-pyridin-2-yl-ethylcarbamoyl]-1,4,6,7-tetrahydro-pyrazolo[4,3-c]pyridine-5-carboxylic acid methyl ester] gave a concentration for a half-maximal effect (EC50) of 1 nM. This compound displayed an IC50 on Cannabinoid CB1 Receptor of 3 nM. Besides, the inhibition at 0.2 µM on Cannabinoid CB2 Receptor stood at 56%.

Compound `COc1ccc(/C=C2\CN(C(C)=O)Cc3c(C(=O)N[C@H](C)c4ccccn4)nn(-c4ccc(Cl)cc4Cl)c32)cc1` [Cpd 97, (7E)-5-acetyl-1-(2,4-dichloro-phenyl)-7-(4-methoxy-benzylidene)-4,5,6,7-tetrahydro-1H-pyrazolo[4,3-c]pyridine-3-carboxylic acid [(1R)-1-pyridin-2-yl-ethyl]-amide] displayed an EC50 at CB1 receptor (human) of 10 nM. This compound also returned an IC50 on Cannabinoid CB1 Receptor of 7 nM. Further, at Cannabinoid CB2 Receptor (test concentration of 0.2 μM, compounds without an IC50 binding value), the inhibition at 0.2 µM came out at 33%.

For `CCNC(=O)N1C/C(=C\c2ccc(OC)cc2)c2c(c(C(=O)N[C@H](C)c3ccccn3)nn2-c2ccc(Cl)cc2Cl)C1` [Cpd 98, (7E)-1-(2,4-dichloro-phenyl)-7-(4-methoxy-benzylidene)-1,4,6,7-tetrahydro-pyrazolo[4,3-c]pyridine-3,5-dicarboxylic acid 5-ethylamide 3-{[(1R)-1-pyridin-2-yl-ethyl]-amide}], the EC50 at CB1 receptor (human) worked out at 4 nM. The compound further displayed an IC50 on Cannabinoid CB1 Receptor of 8 nM. The inhibition at 0.2 µM on Cannabinoid CB2 Receptor stood at 17%.

For the compound `COc1ccc(/C=C2\CN(S(C)(=O)=O)Cc3c(C(=O)N[C@H](C)c4ccccn4)nn(-c4ccc(Cl)cc4Cl)c32)cc1` [Cpd 99, (7E)-1-(2,4-dichloro-phenyl)-5-methanesulfonyl-7-(4-methoxy-benzylidene)-4,5,6,7-tetrahydro-1H-pyrazolo[4,3-c]pyridine-3-carboxylic acid [(1R)-1-pyridin-2-yl-ethyl]-amide], the response on CB1 receptor (human) was half-maximal at 3 nM (EC50). Moreover, the IC50 on Cannabinoid CB1 Receptor was found to be 2 nM. In addition, the inhibition at 0.2 µM at Cannabinoid CB2 Receptor amounted to 32%.

As to `COC(=O)N1C/C(=C\c2ccc(OC)cc2)c2c(c(C(=O)NN3CC4CCCC4C3)nn2-c2ccc(Cl)cc2Cl)C1` (stereo not drawn) [Cpd 100, (7E)-1-(2,4-dichloro-phenyl)-3-(hexahydro-cyclopenta[c]pyrrol-2-ylcarbamoyl)-7-(4-methoxy-benzylidene)-1,4,6,7-tetrahydro-pyrazolo[4,3-c]pyridine-5-carboxylic acid methyl ester], the concentration for a half-maximal effect (EC50) at CB1 receptor (human) was determined as 1 nM. In addition, on Cannabinoid CB1 Receptor, the IC50 came out at 7 nM. In addition, at Cannabinoid CB2 Receptor, the inhibition at 0.2 µM came to 63%.

`C[C@@H](NC(=O)c1nn(Cc2ccccc2)c2c1CN(C(=O)OC(C)(C)C)CC2)C1CCCCC1` [Cpd 103, 1-benzyl-3-[(1R)-1-cyclohexyl-ethylcarbamoyl]-1,4,6,7-tetrahydro-pyrazolo[4,3-c]pyridine-5-carboxylic acid tert-butyl ester]: on CB1 receptor (human), the “CB1 Receptor Functional Activity (change in functional activity, CRE β-gal)” value was determined as 8%. The IC50 at Cannabinoid CB1 Receptor (setting [1]) is 300 nM; on Cannabinoid CB2 Receptor (human CB2, SK-N-MC cell membranes, calculated by linear regression from percent inhibition at various concentrations, read-out: Cannabinoid CB2 Receptor Binding IC50) it was 900 nM.

As to `CC(C)(C)OC(=O)N1CCc2c(c(C(=O)N[C@H]3C4(C)CCC(C4)C3(C)C)nn2Cc2ccccc2)C1` (stereo partly drawn) [Cpd 104, 1-benzyl-3-[(2S)-1,3,3-trimethyl-bicyclo[2.2.1]hept-2-ylcarbamoyl]-1,4,6,7-tetrahydro-pyrazolo[4,3-c]pyridine-5-carboxylic acid tert-butyl ester], the “CB1 Receptor Functional Activity (change in functional activity, CRE β-gal)” value on CB1 receptor (human) is listed as −11%. In addition, the IC50 is 500 nM on Cannabinoid CB1 Receptor (setting [1]) and 20 nM at Cannabinoid CB2 Receptor.

On to `CC12CCC(C1)C(C)(C)[C@H]2NC(=O)c1nn(Cc2ccccc2)c2c1CNCC2` (stereo partly drawn) [Cpd 105, 1-benzyl-4,5,6,7-tetrahydro-1H-pyrazolo[4,3-c]pyridine-3-carboxylic acid [(2S)-1,3,3-trimethyl-bicyclo[2.2.1]hept-2-yl]-amide], for which, at CB1 receptor (human), the “CB1 Receptor Functional Activity (change in functional activity, CRE β-gal)” value is on record as −18%. In addition, the IC50 on Cannabinoid CB1 Receptor came to 200 nM; on Cannabinoid CB2 Receptor it was 500 nM.
